{"source": "patent US9034825B2", "about": "“Treatment of myocardial injury with humanin analogs” (Albert Einstein College of Medicine of Yeshiva University, priority 2007, dated 2015)", "test_system": "Sprague-Dawley rats", "experiment": "ICV infusion of humanin or F6A HN with basal and hyperinsulinemic clamp (Example 2)", "assay_type": "in vivo, rat", "source_text": "Young (3 mo old, n=6 in each group), male Sprague-Dawley rats (Charles River Laboratories, Wilmington, Mass.) were used for this study. Rats were housed in individual cages and were subjected to a standard light (6:00 AM to 6:00 PM)—dark (6:00 PM to 6:00 AM) cycle. All rats were fed ad libitum using regular rat chow that consisted of 64% carbohydrate, 30% protein, and 6% fat with a physiological fuel value of 3.3-kcal/g chow. 2 to 4 weeks before the in vivo study, the rats were anesthetized by inhalation of isoflurane and ICV cannula was placed in the third ventricle for infusions of humanin, humanin analog F6A HN or artificial CSF (aCSF), as previously described (Muzumdar et al., 2003) (FIG. 6). Briefly, a 26-gauge stainless steel guide cannula (Plastics One, Roanoke, Va.) was chronically implanted into the third ventricles using the following coordinates from bregma: anterior-posterior; +0.2 mm dorsal-ventral; −9.0 mm medial-lateral; 0.0 directly on the mid-sagittal suture, followed by a 28-gauge dummy cannula, inserted to prevent clogging of the guide cannula. The implant was secured to the skull with Caulk Grip dental cement, and the skin was closed over the implant using wound clips. The recovery of rats from the surgical stress was monitored with daily weight, food intake, and movement.\nUpon recovery of body weight, usually a week, indwelling catheters were placed in the right internal jugular vein and in the left carotid artery (Muzumdar et al., 2003). The venous catheter was extended to the level of the right atrium, and the arterial catheter was advanced to the level of the aortic arch. Recovery was continued until body weight was within 3% of the pre-operative weight (˜4-6 days). In the rats that received peripheral humanin, only the vascular catheters were placed.\nStudies were performed in unrestrained rats using the insulin clamp technique, in combination with high performance liquid chromatography-purified [3-^3H]glucose, as described previously (Liu et al., 1998). Food was removed for ˜5 h before the in vivo protocol. All studies lasted 360 min and included a 120-min equilibration period, a 120-min basal period for assessment of the basal glucose turnover, and a 120-min hyperinsulinemic clamp period. All rats received ICV infusions (bolus followed by continuous ICV infusions of humanin, F6A HN or aCSF, depending on the group) over the entire 6 hours of the study. At the beginning of the basal period and 120 min before starting the glucose/insulin infusions, a primed-continuous infusion of high performance liquid chromatography-purified [3-^3H]glucose (NEN Life Science Products, Boston, Mass.; 20 μCi of bolus, 0.2 μCi/min) was initiated and maintained throughout the remaining 4 h of the study. In the final 2 hours of the study, the rats were subjected to hyperinsulinemic clamp. The protocol followed during the insulin clamp study was similar to that previously described (Liu et al., 1998). Briefly, a primed-continuous infusion of regular insulin (3 milliunits/kg-min) was administered, and a variable infusion of a 25% glucose solution was started and periodically adjusted to clamp the plasma glucose concentration at 7-8 mM. To prevent endogenous insulin secretion and in order to control for possible effects of ICV infusions on the endocrine pancreas, somatostatin (1.5 μg/kg-min) was also infused in all the groups.\nA bolus of humanin (6 μg) was followed by a continuous infusion over 6 hours (total dose of 18 μg, 0.1 μg/kg/min).\nF6A HN has one amino acid substitution (F6A-phenylalanine to alanine on position 6) and has been characterized. A bolus of F6 A HN ([…]) was followed by a continuous infusion over 6 hours (total 18 μg, 0.1 μg/kg/min).\nPlasma glucose (sample volume 10 μl) was measured by the glucose oxidase method (Glucose Analyzer II, Beckman Instruments, Palo Alto, Calif.). […]", "key": {"[1]": {"details": "ICV 18 μg over 6 h, basal period"}, "[2]": {"details": "ICV 18 μg over 6 h, hyperinsulinemic clamp"}}, "data": [{"compound": "CC[C@H](C)[C@H](NC(=O)[C@H](CCC(=O)O)NC(=O)[C@H](CO)NC(=O)[C@@H](NC(=O)[C@H](CC(C)C)NC(=O)[C@H](CC(C)C)NC(=O)[C@H](CC(C)C)NC(=O)[C@H](CC(C)C)NC(=O)[C@H](CS)NC(=O)[C@H](CO)NC(=O)[C@H](Cc1ccccc1)NC(=O)CNC(=O)[C@H](CCCNC(=N)N)NC(=O)[C@@H]1CCCN1C(=O)[C@H](C)NC(=O)[C@@H](N)CCSC)[C@@H](C)O)C(=O)N[C@@H](CC(=O)O)C(=O)N[C@@H](CC(C)C)C(=O)N1CCC[C@H]1C(=O)N[C@H](C(=O)N[C@@H](CCCCN)C(=O)N[C@@H](CCCNC(=N)N)C(=O)N[C@@H](CCCNC(=N)N)C(=O)N[C@@H](C)C(=O)O)C(C)C", "note": "[Humanin, maprgfscll lltseidlpv krra]", "values": [{"measurement": "Glycogen synthesis, Basal", "setting": "[1]", "value": "4.89 ± 0.61"}, {"measurement": "Glycolysis, Basal", "setting": "[1]", "value": "7.99 ± 0.73", "unit": "mg/kg/min"}, {"measurement": "HGP, Basal", "setting": "[1]", "value": "12.87 ± 1.6", "unit": "mg/kg/min"}, {"measurement": "FFA", "setting": "[2]", "value": "0.33 ± 0.03", "unit": "mEq/L"}, {"measurement": "Glycogen synthesis, Clamp", "setting": "[2]", "value": "9.75 ± 0.92"}, {"measurement": "Glycolysis, Clamp", "setting": "[2]", "value": "15.1 ± 1.0", "unit": "mg/kg/min"}, {"measurement": "HGP, Clamp", "setting": "[2]", "value": "2.27 ± 0.37", "unit": "mg/kg/min"}, {"measurement": "Rd, Clamp", "setting": "[2]", "value": "24.9 ± 1.6", "unit": "mg/kg/min"}, {"measurement": "GIR, Clamp", "setting": "ICV 18 μg over 6 h, hyperinsulinemic clamp 3 mU/kg/min", "value": "22.8 ± 1.64", "unit": "mg/kg/min"}, {"measurement": "increase in peripheral glucose uptake (Rd)", "setting": "ICV HN, hyperinsulinemic clamp", "value": "~150", "unit": "%"}, {"measurement": "more reduction in hepatic glucose production (HGP)", "setting": "ICV HN, hyperinsulinemic clamp", "value": "~50", "unit": "%"}, {"measurement": "suppression of FFA compared to controls", "setting": "ICV HN, hyperinsulinemic clamp", "value": "significantly higher"}, {"measurement": "glucose infusion rate (GIR) relative to aCSF", "setting": "ICV HN, hyperinsulinemic clamp 3 mU/kg/min", "value": "165 % of aCSF"}, {"measurement": "glucose infusion rate (GIR) during the hyperinsulinemic clamp", "setting": "ICV HN, Example Summary, in mg/kg/min (unit assumed)", "value": "25.2 ±2.6"}, {"measurement": "humanin in the rat periphery", "setting": "after ICV infusion", "value": "No humanin was detected"}]}]}
